Values of other authors in patent US20030232369A1, “Molecular structure of RNA polymerase II” (priority 2002, published 2003).

Assays:
[1] = test system: pol II
[2] = test system: pol II; conditions: relative to α-amanitin

Compound | effect on transcription [1] | influence of α-amanitin binding on the affinity of pol II for nucleoside triphosphates [1] | rate of translocation of pol II on DNA ([1]; after addition of α-amanitin to a transcribing pol II complex) | reduction of inhibition (fold less inhibitory than α-amanitin) [2]
CC[C@H](C)[C@@H]1NC(=O)CNC(=O)[C@@H]2Cc3c([nH]c4cc(O)ccc34)[S+]([O-])C[C@@H](NC(=O)CNC1=O)C(=O)N[C@@H](CC(N)=O)C(=O)N1C[C@H](O)C[C@H]1C(=O)N[C@@H]([C@@H](C)[C@@H](O)CO)C(=O)N2 (stereo in doubt) [α-amanitin] | blocks both transcription initiation and elongation | little if any influence | reduced from several thousand to only a few | –
CCC(C)C1NC(=O)CNC(=O)C2Cc3c([nH]c4cc(O)ccc34)[S+]([O-])CC(NC(=O)CNC1=O)C(=O)NC(CC(N)=O)C(=O)N1CC(O)CC1C(=O)NC(C(C)CC)C(=O)N2 (centres unmarked) [amanullin] | – | – | – | about 4 fold
proamanullin | – | – | – | about 20,000 fold
